We go through one compound from US20120022033A1, “Methods for decreasing cardiovascular risk in postmenopausal women” (BIOSANTE PHARMACEUTICALS, INC., priority 2010, published 2012).

Each structure is given as a SMILES string.

The experiment relates to postmenopausal women at high risk for cardiovascular events. The experiment can be described thus: Randomized, double-blind, placebo-controlled, multi-center Phase 3 study; observed vs expected cardiovascular events. The class given is in vivo. As to conditions: postmenopausal women at high risk for cardiovascular disease, compared with untreated group. From the text: The following example calculates the expected number of cardiovascular events in a population of postmenopausal women derived from historical data. The estimate of the expected rate of cardiovascular events has been determined from the event rates noted in the Women's Health Initiative (WHI), a Department of Health and Human Services National Institute of Health-sponsored study of women between 50 and 79 years of age, a similar set of women between that age were enrolled for determining the actual number of cardiovascular events as described in Example 2.
Overall, the cardiovascular event rate in women in the WHI study who had at least one cardiovascular risk factor was approximately 2-fold greater than in women without any cardiovascular risk factors. […]
The study consisted of a screening period of up to 8 weeks and a 60-month treatment period. […] Adverse cardiovascular and breast cancer events (ABC events) were assessed at each subject contact in addition to the usual assessments of safety and concomitant medications. […]
There were eight adjudicated cardiovascular events determined from this Phase 3 clinical trial after greater than 4,000 woman-years of therapy.

In the case of `C[C@]12CC[C@H]3[C@@H](CCC4=CC(=O)CC[C@@]43C)[C@@H]1CC[C@@H]2O` [testosterone, testosterone (17-β-hydroxyandrostenone)], the “risk of having a cardiovascular event (result in words)” value is recorded as “decreases in the risk of having a cardiovascular event”.
